Test results: patent US7097854B2, “Amino alcohol derivatives, process for their production and pharmaceutical preparations and reagents containing these compounds” (MediGene Oncology GmbH, priority 1996, dated 2006)

How the values were obtained:
HeLa cells = assay: Transfection with pCMV-CAT, CAT-Elisa, HeLa cells; format: cell-based, human; settings: relative to DOTAP = 1, pCMV-CAT plasmid
From the text: (§1) The testing of DOTAP or the compounds of the invention comprises transfection of the test cells, protein determination by means of the BCA method (Pierce) and carrying out a CAT Elisa and these are described here using DOTAP (Boehringer Mannheim) as an example. After ultrasonication the cationic lipid DOTAP forms unilamellar vesicles (liposomes) in aqueous solution which spontaneously form stable complexes with the DNA (pCMV-CAT). These complexes adhere to the cell surface, fuse with the cell membrane and pCMV-CAT is released into the cytoplasm. The transiently expressed CAT is detected in the cell lysate.
HeLa, human cancer epithelial cell line from the cervix, ATCC CCL 2
(§2) The composition of the test medium used for the respective cell line corresponds with that of the respective culture medium, only the content of FCS is reduced by 50% (only 5% FCS instead of 10%). […]
(§3) The CAT (chloroamphenicol acetyl transferase)-Elisa serves to quantitatively determine the CAT expression in eukaryotic cells after transfection with a plasmid that contains CAT as the reporter gene. […] Anti-CAT-DIG is detected in the third step by a peroxidase-labelled antibody against digoxigenin (Anti-DIG-POD) and visualized in a subsequent substrate reaction. […]
(§4) The microtitre plate is measured at 405 nm and a reference wavelength of 492 nm with an Elisa reader.

Calu cells = assay: Transfection with pCMV-CAT, CAT-Elisa, Calu cells; format: cell-based, human; settings: relative to DOTAP = 1, pCMV-CAT plasmid
From the text: as §1
CALU 1, human cancer epithelial cell line from the lung, ECACC 93120818 or another suitable test cell line
as §2, §3, §4

SMILES | melting point [°C] | relative transfection efficiency in a CAT-Assay (DOTAP = 1) (HeLa cells) | relative transfection efficiency in a CAT-Assay (DOTAP = 1) (Calu cells)
CCCCCCCCCCCC(=O)OCCN(CCCNCCCN)CCOC(=O)CCCCCCCCCCC.Cl | 245 to 246 |  | 
CCCCCCCCCCCCCC(=O)OCCN(CCOC(=O)CCCCCCCCCCCCC)CC1CCN(CCCN(C)C)CC1 [Example 34, Tetradecanoic acid-2-{(2-tetradecanoyloxy-ethyl)-[1-(3-dimethylamino-propyl)-piperidin-4-yl-methyl]-amino}-ethyl ester] |  | 3.2 | 3.9
CCCCCCCCCCCCCC(=O)OCCN(CCCCNCCCN)CCOC(=O)CCCCCCCCCCCCC [Example 60, Tetradecanoic acid-2-{[4-(3-amino-propylamino)-butyl]-(2-tetradecanoyloxy-ethyl)-amino}-ethyl ester] |  | 3.2 | 3.4
